Laboratory results reported in PMC8190884 (ACS Omega, 2021).
Marks after values point to notes of the source that are not given here.

What was measured:
[1] = molecular target: T1, HIV reverse transcriptase (RT) (Human immunodeficiency virus type 1 group M subtype B, UniProt P04585); assay: Pre-steady-state observed incorporation rate constant; type: biochemical, HIV-1; conditions: 5 μM nucleotide; for kobs ± standard deviation: 37 °C
[2] = tested on: HIV RT; assay: Primer extension inhibition assay on a 100-nt DNA template; type: biochemical, HIV-1; conditions: 5 μM dNTPs, 3 μM analogue, 0.5 or 6 mM Mg2+, 30 min
[3] = molecular target: HIV RT; conditions: 6 mM Mg2+, different template; ref manuscript in preparation; cited from earlier work
[4] = molecular target: T1, HIV reverse transcriptase (RT); assay: Pre-steady-state determination of KD and kpol; type: biochemical, HIV-1; conditions: for kpol (maximum incorporation rate) / Kd: curve fit ± standard error; for Kd: Kd (equilibrium dissociation constant)
[5] = tested on: HIV RT; assay: Steady-state incorporation of 3′-O-CH3 dTTP by HIV RT; type: biochemical, HIV-1; conditions: 100 μM 3′-O-methyl dTTP; for kobs ± standard deviation (steady-state): 20 nM primer–template, 20 nM RT, 30 min
[6] = tested on: HIV; conditions: cited from earlier work

SMILES: CC[C@]1(COP(=O)(O)OP(=O)(O)OP(=O)(O)O)O[C@@H](n2cc(C)c(=O)[nH]c2=O)C[C@@H]1O [4′-C-ethyl dTTP]
- relative rate vs dTTP same [Mg2+] ([1]; 0.5 mM Mg2+): 0.15
- kobs ± standard deviation ([1]; 0.5 mM free Mg2+): 1.3 ± 0.1 s^–1
- incorporation rate, fold faster than D-carba dTTP ([1]; 6 mM Mg2+): about 3 fold
- relative rate vs dTTP same [Mg2+] ([1]; 6 mM Mg2+): 0.28
- kobs ± standard deviation ([1]; 6 mM Mg2+): 3.9 ± 0.4 s^–1
- inhibition of primer extension (terminated vs fully extended products), in words [2]: less effective

SMILES: Cc1cn([C@@H]2C[C@H](COP(=O)(O)OP(=O)(O)OP(=O)(O)O)[C@@H](O)C2)c(=O)[nH]c1=O [D-carba dTTP]
- 6/0.5 mM Mg2+ with the same nucleotide (ratio of kobs; fold slower in 0.5 mM) [1]: not strongly affected
- relative rate vs dTTP same [Mg2+] ([1]; 0.5 mM Mg2+): 0.13
- kobs ± standard deviation ([1]; 0.5 mM free Mg2+): 1.1 ± 0.5 s^–1
- relative rate vs dTTP same [Mg2+] ([1]; 6 mM Mg2+): 0.092
- kobs ± standard deviation ([1]; 6 mM Mg2+): 1.3 ± 0.1 s^–1
- inhibition of primer extension (terminated vs fully extended products), in words [2]: by far the weakest inhibitor
- inhibition of primer extension (terminated vs fully extended products), in words ([2]; listed as D-carba): weak inhibitor under both conditions
- KD, fold higher than 4′-C-ethyl and 4′-C-methyl dTTP [3]: 4–8 fold

SMILES: Cc1cn([C@H]2C[C@H](N)[C@@H](COP(=O)(O)OP(=O)(O)OP(=O)(O)O)O2)c(=O)[nH]c1=O [3′-amino dTTP]
- 6/0.5 mM Mg2+ with the same nucleotide (ratio of kobs; fold slower in 0.5 mM) [1]: 3.8
- fold slower kobs compared to dTTP ([1]; 0.5 mM (low) Mg2+): > 10 fold
- relative rate vs dTTP same [Mg2+] ([1]; 0.5 mM Mg2+): 0.094
- kobs ± standard deviation ([1]; 0.5 mM free Mg2+): 0.81 ± 0.13 s^–1
- relative rate vs dTTP same [Mg2+] ([1]; 6 mM Mg2+): 0.22
- kobs ± standard deviation ([1]; 6 mM Mg2+): 3.1 ± 0.1 s^–1

SMILES: Cc1cn([C@H]2C=C[C@@H](COP(=O)(O)OP(=O)(O)OP(=O)(O)O)O2)c(=O)[nH]c1=O [d4TTP, 2′,3′-didehydro-2′,3′-dideoxythymidine triphosphate]
- 6/0.5 mM Mg2+ with the same nucleotide (ratio of kobs; fold slower in 0.5 mM) [1]: 4.6
- relative rate vs dTTP same [Mg2+] ([1]; 0.5 mM Mg2+): 0.21
- kobs ± standard deviation ([1]; 0.5 mM free Mg2+): 1.8 ± 0.7 s^–1
- fold slower kobs compared to dTTP ([1]; 6 mM (high) Mg2+): about 2 fold
- relative rate vs dTTP same [Mg2+] ([1]; 6 mM Mg2+): 0.59
- kobs ± standard deviation ([1]; 6 mM Mg2+): 8.3 ± 0.8 s^–1
- efficiency decline (fold decline in kpol/Kd relative to dTTP at the same Mg2+) ([4]; 0.5 mM Mg2+): 6.7 fold
- kpol/Kd (catalytic efficiency) ([4]; 0.5 mM Mg2+): 0.64
- kpol (maximum incorporation rate) ([4]; 0.5 mM Mg2+): 4.9 ± 0.5 s^–1
- efficiency decline (fold decline in kpol/Kd relative to dTTP at the same Mg2+) ([4]; 6 mM Mg2+): 3.2 fold
- kpol/Kd (catalytic efficiency) ([4]; 6 mM Mg2+): 1.9
- kpol (maximum incorporation rate) ([4]; 6 mM Mg2+): 22.3 ± 1.7 s^–1

SMILES: Cc1cn([C@H]2C[C@H](O)[C@@](C)(COP(=O)(O)OP(=O)(O)OP(=O)(O)O)O2)c(=O)[nH]c1=O [4′-C-methyl dTTP]
- 6/0.5 mM Mg2+ with the same nucleotide (ratio of kobs; fold slower in 0.5 mM) [1]: 0.88
- relative rate vs dTTP same [Mg2+] ([1]; 0.5 mM Mg2+): 0.52
- kobs ± standard deviation ([1]; 0.5 mM free Mg2+): 4.5 ± 1.4 s^–1
- incorporation rate, fold faster than D-carba dTTP ([1]; 6 mM Mg2+): about 3 fold
- relative rate vs dTTP same [Mg2+] ([1]; 6 mM Mg2+): 0.28
- kobs ± standard deviation ([1]; 6 mM Mg2+): 3.9 ± 2.8 s^–1

SMILES: Cc1cn([C@H]2CC[C@@H](COP(=O)(O)OP(=O)(O)OP(=O)(O)O)O2)c(=O)[nH]c1=O [ddTTP, dideoxy TTP]
- 6/0.5 mM Mg2+ with the same nucleotide (ratio of kobs; fold slower in 0.5 mM) [1]: 5.1
- relative rate vs dTTP same [Mg2+] ([1]; 0.5 mM Mg2+): 0.16
- kobs ± standard deviation ([1]; 0.5 mM free Mg2+): 1.4 ± 0.7 s^–1
- fold slower kobs compared to dTTP ([1]; 6 mM (high) Mg2+): about 2 fold
- relative rate vs dTTP same [Mg2+] ([1]; 6 mM Mg2+): 0.51
- kobs ± standard deviation ([1]; 6 mM Mg2+): 7.2 ± 1.0 s^–1

SMILES: Cc1cn([C@H]2C[C@H](N=[N+]=[N-])[C@@H](CO[P@](=O)(O)O[P@](=O)(O)OP(=O)(O)O)O2)c(=O)[nH]c1=O [AZTTP]
- 6/0.5 mM Mg2+ with the same nucleotide (ratio of kobs; fold slower in 0.5 mM) [1]: 4.5
- relative rate vs dTTP same [Mg2+] ([1]; 0.5 mM Mg2+): 0.23
- kobs ± standard deviation ([1]; 0.5 mM free Mg2+): 2.0 ± 0.5 s^–1
- fold slower kobs compared to dTTP ([1]; 6 mM (high) Mg2+): about 2 fold
- relative rate vs dTTP same [Mg2+] ([1]; 6 mM Mg2+): 0.63
- kobs ± standard deviation ([1]; 6 mM Mg2+): 8.9 ± 1.9 s^–1
- efficiency decline (fold decline in kpol/Kd relative to dTTP at the same Mg2+) ([4]; 0.5 mM Mg2+): 7.2 fold
- kpol/Kd (catalytic efficiency) ([4]; 0.5 mM Mg2+): 0.6
- kpol (maximum incorporation rate) ([4]; 0.5 mM Mg2+): 3.3 ± 0.3 s^–1
- efficiency decline (fold decline in kpol/Kd relative to dTTP at the same Mg2+) ([4]; 6 mM Mg2+): 1.5 fold
- kpol (maximum incorporation rate) ([4]; 6 mM Mg2+): 17.0 ± 0.6 s^–1
- Kd ([4]; 0.5 mM Mg2+): 5.5 ± 1.7 µM

SMILES: CO[C@H]1C[C@H](n2cc(C)c(=O)[nH]c2=O)O[C@@H]1COP(=O)(O)OP(=O)(O)OP(=O)(O)O [3′-O-methyl dTTP]
- 6/0.5 mM Mg2+ with the same nucleotide (steady-state rates) [5]: 5.4
- kobs ± standard deviation (steady-state) ([5]; 0.5 mM Mg2+): 3.3 × 10^–5± 0.6 × 10^–5 ^c nM/min
- kobs ± standard deviation (steady-state) ([5]; 6 mM Mg2+): 1.8 × 10^–4± 0.2 × 10^–4 ^c nM/min
- inhibition of primer extension (terminated vs fully extended products), in words [2]: no inhibition

SMILES: Cc1cn([C@H]2C[C@H](O)[C@@H](CO[P@](=O)(O)O[P@@](=O)(O)OP(=O)(O)O)O2)c(=O)[nH]c1=O [dTTP, Deoxythymidine triphosphate]
- 6/0.5 mM Mg2+ with the same nucleotide (ratio of kobs; fold slower in 0.5 mM) [1]: 1.6
- relative rate vs dTTP same [Mg2+] ([1]; 0.5 mM Mg2+): 1
- kobs ± standard deviation ([1]; 0.5 mM free Mg2+): 8.6 ± 1.3 s^–1
- relative rate vs dTTP same [Mg2+] ([1]; 6 mM Mg2+): 1
- kobs ± standard deviation ([1]; 6 mM Mg2+): 14.1 ± 1.2 s^–1
- efficiency decline (fold decline in kpol/Kd relative to dTTP at the same Mg2+) ([4]; 0.5 mM Mg2+): 1 fold
- kpol/Kd (catalytic efficiency) ([4]; 0.5 mM Mg2+): 4.3
- kpol (maximum incorporation rate) ([4]; 0.5 mM Mg2+): 14.3 ± 0.8 s^–1
- efficiency decline (fold decline in kpol/Kd relative to dTTP at the same Mg2+) ([4]; 6 mM Mg2+): 1 fold
- kpol/Kd (catalytic efficiency) ([4]; 6 mM Mg2+): 6.0
- kpol (maximum incorporation rate) ([4]; 6 mM Mg2+): 25.0 ± 1.3 s^–1
- Kd ([4]; 0.5 mM Mg2+): 3.3 ± 0.6 µM
- Kd ([4]; 6 mM Mg2+): 4.2 ± 0.7 µM

SMILES: Cc1cn([C@H]2C[C@H](F)[C@@H](COP(=O)(O)OP(=O)(O)OP(=O)(O)O)O2)c(=O)[nH]c1=O [3′-fluoro dTTP]
- 6/0.5 mM Mg2+ with the same nucleotide (ratio of kobs; fold slower in 0.5 mM) [1]: 2.8
- fold slower kobs compared to dTTP ([1]; 0.5 mM (low) Mg2+): > 10 fold
- relative rate vs dTTP same [Mg2+] ([1]; 0.5 mM Mg2+): 0.063
- kobs ± standard deviation ([1]; 0.5 mM free Mg2+): 0.54 ± 0.13 s^–1
- relative rate vs dTTP same [Mg2+] ([1]; 6 mM Mg2+): 0.11
- kobs ± standard deviation ([1]; 6 mM Mg2+): 1.5 ± 0.1 s^–1

SMILES: Nc1ncnc2c1ncn2[C@H]1CC[C@@H](CO[P@@](=O)(O)O[P@](=O)(O)OP(=O)(O)O)O1 [ddATP]
- selectivity index, fold lower than that for AZT [6]: about 4.5 fold
